Reference: ChEMBL document CHEMBL1133098, “Subtype-selective N-methyl-D-aspartate receptor antagonists: benzimidazalone and hydantoin as phenol replacements” (J Med Chem, 2000)

What was measured:
Assay type in all cases: cell-based, Oocyte
[1] = target: Glutamate receptor ionotropic, NMDA 2C (Rattus norvegicus, UniProt P35439+Q00961); test: In vitro inhibition of NMDA responses at NR1A/2C receptor expressed in Xenopus oocytes
[2] = target: Glutamate NMDA receptor; Grin1/Grin2b (Rattus norvegicus, UniProt P35439+Q00960); test: In vitro inhibition of NMDA responses at NR1A/2B receptor expressed in Xenopus oocytes
[3] = target: Glutamate NMDA receptor; Grin1/Grin2a (Rattus norvegicus, UniProt P35439+Q00959); test: In vitro inhibition of NMDA responses at NR1A/2A receptor expressed in Xenopus oocytes
Glutamate NMDA receptor; Grin1/Grin2a, sequence (Q00959 whole entry, looked up, other chains not shown): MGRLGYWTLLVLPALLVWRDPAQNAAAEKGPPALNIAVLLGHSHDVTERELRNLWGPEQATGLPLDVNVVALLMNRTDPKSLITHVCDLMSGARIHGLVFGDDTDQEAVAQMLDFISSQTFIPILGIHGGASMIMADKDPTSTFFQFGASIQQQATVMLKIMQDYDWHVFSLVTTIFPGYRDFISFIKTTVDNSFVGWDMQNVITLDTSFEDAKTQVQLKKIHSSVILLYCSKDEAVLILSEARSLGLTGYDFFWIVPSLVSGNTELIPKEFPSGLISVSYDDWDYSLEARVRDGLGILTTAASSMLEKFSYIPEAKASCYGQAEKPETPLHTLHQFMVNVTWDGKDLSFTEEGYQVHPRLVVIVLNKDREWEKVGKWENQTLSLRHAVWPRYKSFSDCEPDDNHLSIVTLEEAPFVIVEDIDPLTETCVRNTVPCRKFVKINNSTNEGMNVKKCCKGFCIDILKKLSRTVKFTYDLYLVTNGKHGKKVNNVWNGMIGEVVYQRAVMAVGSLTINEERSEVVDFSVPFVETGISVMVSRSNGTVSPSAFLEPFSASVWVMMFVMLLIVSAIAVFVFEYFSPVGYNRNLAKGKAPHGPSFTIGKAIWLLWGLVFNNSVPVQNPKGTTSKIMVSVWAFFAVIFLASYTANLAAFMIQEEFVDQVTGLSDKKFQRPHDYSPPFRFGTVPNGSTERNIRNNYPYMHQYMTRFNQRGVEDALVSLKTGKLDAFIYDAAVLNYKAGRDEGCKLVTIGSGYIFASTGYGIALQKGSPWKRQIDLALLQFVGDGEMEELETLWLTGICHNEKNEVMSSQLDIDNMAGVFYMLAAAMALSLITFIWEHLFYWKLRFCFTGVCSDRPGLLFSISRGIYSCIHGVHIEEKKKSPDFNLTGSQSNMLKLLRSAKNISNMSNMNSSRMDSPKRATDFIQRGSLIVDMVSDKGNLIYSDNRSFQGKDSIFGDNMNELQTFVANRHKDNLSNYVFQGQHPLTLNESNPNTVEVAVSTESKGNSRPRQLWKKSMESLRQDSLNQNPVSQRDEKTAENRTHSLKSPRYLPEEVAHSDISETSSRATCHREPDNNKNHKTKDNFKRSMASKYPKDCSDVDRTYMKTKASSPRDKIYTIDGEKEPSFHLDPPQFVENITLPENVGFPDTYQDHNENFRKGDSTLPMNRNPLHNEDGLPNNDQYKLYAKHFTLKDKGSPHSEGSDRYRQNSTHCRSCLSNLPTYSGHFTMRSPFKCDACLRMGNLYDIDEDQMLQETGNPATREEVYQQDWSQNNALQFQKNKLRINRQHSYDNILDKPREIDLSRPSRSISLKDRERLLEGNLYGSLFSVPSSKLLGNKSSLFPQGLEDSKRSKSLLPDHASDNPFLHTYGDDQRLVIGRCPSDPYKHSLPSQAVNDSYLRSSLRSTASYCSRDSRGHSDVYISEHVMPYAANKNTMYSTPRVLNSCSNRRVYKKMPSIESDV

Glutamate receptor ionotropic, NMDA 2C, sequence (Q00961 whole entry, one chain of several): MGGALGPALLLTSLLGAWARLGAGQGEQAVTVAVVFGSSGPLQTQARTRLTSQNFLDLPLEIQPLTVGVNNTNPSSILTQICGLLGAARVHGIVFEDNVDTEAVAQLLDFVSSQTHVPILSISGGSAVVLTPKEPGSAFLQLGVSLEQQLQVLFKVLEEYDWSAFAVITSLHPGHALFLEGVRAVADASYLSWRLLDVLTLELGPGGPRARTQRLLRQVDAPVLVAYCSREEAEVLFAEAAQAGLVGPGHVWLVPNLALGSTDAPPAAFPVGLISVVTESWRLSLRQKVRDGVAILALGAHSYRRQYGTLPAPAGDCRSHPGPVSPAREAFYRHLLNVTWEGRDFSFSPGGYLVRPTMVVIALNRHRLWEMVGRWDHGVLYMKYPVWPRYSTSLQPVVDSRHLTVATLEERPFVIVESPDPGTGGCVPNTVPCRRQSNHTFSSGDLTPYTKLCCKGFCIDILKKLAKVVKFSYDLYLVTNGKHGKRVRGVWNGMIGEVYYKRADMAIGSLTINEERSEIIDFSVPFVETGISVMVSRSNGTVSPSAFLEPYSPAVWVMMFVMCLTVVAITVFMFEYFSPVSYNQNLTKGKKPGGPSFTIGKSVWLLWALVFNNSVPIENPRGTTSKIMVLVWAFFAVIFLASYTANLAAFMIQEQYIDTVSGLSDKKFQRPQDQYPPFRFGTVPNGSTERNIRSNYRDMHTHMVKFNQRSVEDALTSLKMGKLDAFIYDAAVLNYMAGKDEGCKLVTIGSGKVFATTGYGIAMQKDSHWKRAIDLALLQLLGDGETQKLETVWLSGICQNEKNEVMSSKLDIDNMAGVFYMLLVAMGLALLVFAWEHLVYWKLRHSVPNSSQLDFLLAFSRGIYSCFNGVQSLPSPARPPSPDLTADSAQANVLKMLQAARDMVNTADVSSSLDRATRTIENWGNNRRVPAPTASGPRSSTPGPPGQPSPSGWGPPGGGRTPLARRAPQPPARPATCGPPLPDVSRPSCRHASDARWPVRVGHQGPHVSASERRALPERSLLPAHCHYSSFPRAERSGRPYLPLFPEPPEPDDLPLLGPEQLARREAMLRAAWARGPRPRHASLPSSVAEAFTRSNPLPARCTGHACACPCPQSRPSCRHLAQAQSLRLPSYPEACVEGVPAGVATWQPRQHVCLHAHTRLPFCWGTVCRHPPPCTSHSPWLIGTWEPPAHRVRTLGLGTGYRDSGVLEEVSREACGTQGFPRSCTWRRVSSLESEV
Glutamate NMDA receptor; Grin1/Grin2b, sequence (Q00960 whole entry, looked up, other chains not shown): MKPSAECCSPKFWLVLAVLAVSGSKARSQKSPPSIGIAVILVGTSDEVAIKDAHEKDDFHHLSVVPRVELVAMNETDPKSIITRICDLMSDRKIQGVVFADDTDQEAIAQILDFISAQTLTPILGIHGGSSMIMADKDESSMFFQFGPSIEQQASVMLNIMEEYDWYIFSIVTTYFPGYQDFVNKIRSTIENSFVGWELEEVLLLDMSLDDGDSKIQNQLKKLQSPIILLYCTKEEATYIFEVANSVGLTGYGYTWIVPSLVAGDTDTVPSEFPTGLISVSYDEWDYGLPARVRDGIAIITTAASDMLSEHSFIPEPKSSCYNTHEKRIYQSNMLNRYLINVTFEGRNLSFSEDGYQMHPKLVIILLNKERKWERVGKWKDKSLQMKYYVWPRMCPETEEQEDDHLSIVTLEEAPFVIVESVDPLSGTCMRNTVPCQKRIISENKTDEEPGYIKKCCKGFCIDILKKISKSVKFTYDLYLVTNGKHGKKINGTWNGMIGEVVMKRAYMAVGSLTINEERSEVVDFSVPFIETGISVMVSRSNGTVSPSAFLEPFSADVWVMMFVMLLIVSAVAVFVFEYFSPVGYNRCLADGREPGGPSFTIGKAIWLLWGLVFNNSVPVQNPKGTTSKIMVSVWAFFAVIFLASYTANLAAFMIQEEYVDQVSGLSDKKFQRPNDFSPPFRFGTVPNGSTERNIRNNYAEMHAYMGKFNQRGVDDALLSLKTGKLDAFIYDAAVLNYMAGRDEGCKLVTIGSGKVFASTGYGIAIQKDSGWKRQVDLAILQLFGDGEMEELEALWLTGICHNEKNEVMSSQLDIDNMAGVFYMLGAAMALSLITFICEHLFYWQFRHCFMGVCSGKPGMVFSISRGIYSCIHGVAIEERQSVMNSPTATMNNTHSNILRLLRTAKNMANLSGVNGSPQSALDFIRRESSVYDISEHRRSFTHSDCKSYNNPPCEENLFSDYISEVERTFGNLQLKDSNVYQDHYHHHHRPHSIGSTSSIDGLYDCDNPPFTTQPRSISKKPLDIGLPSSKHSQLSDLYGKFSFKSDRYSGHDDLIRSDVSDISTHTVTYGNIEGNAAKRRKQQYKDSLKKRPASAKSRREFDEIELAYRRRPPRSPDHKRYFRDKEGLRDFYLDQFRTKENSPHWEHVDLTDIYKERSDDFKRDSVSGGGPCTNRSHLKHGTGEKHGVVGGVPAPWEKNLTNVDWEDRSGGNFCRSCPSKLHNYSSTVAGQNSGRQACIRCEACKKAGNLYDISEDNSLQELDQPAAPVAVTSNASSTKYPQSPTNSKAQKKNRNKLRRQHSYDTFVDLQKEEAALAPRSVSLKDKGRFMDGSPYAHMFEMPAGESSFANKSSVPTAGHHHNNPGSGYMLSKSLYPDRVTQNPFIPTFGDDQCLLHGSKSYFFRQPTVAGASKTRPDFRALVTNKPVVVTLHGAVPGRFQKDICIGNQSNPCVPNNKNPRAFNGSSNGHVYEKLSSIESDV

| Structure (SMILES) | IC50 [1] [µM] | IC50 [2] [µM] | IC50 [3] [µM] |
| --- | --- | --- | --- |
| O=c1[nH]c2ccccc2n1CCCN1CCC(Cc2ccc(F)cc2)CC1 | > 100 | 0.11 | > 100 |
| O=C1CNC(=O)N1CCCCCN1CCC(Cc2ccccc2)CC1 | > 100 | 49 | 88 |
| Oc1ccc(OCCN2CCC(Cc3ccccc3)CC2)cc1 | > 100 |  | > 100 |
| O=C1CNC(=O)N1CCCN1CCC(Cc2ccccc2)CC1 | > 100 | 27 | > 100 |
| O=c1[nH]c2ccccc2n1CCCN1CCC(Cc2ccccc2)CC1 | > 100 | 0.095 | > 100 |
| Oc1nc2ccccc2n1CCCCN1CCC(Cc2ccccc2)CC1 | > 100 | 3.4 | > 100 |
| O=C1CNC(=O)N1CCCCN1CCC(Cc2ccccc2)CC1 | > 100 | 10 | > 100 |
| O=c1[nH]c2ccccc2n1CCCCCN1CCC(Cc2ccccc2)CC1 | > 100 | 11 | > 100 |
